US9045461B2, “Phenyl-heteroaryl derivatives and methods of use thereof” (TransTech Pharma, LLC, priority 2010, dated 2015)
Counter-ions that a name gives are not always drawn.

Tests used:
[1] = target: T1, sRAGE binding to β-amyloid (Homo sapiens, UniProt Q15109); experiment: RAGE binding assay (ELISA), β-amyloid as the RAGE ligand; conditions: compounds tested in hydrochloride salt form, concentration at which 50% signal has been inhibited
T1 construct: extracellular domain can be isolated by proteolysis of RAGE to generate soluble RAGE (sRAGE) comprised of the V and C domains
T1 sequence (Q15109 23-342 limits assumed): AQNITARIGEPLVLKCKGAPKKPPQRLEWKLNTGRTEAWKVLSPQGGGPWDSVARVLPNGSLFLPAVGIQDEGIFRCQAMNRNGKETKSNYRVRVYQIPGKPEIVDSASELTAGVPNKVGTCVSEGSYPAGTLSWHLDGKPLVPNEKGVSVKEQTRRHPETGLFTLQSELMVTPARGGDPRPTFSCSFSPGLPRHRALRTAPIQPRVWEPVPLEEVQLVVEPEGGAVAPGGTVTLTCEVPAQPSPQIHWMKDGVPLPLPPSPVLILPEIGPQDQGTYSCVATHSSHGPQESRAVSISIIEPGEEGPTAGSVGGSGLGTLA
Description: (§1) The following assay method may be used to identify compounds of Formula (I) or pharmaceutically acceptable salts thereof which are useful as inhibitors of binding of physiological RAGE ligands, such as S100b and β-amyloid, to RAGE.
(§2) S100b, β-amyloid, or CML (500 ng/100 μL/well) in 100 mM sodium bicarbonate/sodium carbonate buffer (pH 9.8) is loaded onto the wells of a NUNC Maxisorp flat bottom 96-well microtitre plate. The plate is incubated at 4° C. overnight. The wells are aspirated and treated with 50 mM imidazole buffer saline (pH 7.2) (with 5 mM CaCl2/MgCl2) containing 1% bovine serum albumin (BSA) (300 μL/well) for 1 h at RT. The wells are aspirated.
(§3) Test compounds are dissolved in nanopure water (concentration: 10-100 μM). DMSO may be used as co-solvent. 25 μL of test compound solution in 4% DMSO is added, along with 75 μL sRAGE (6 nM FAC) to each well and samples are incubated for 1 h at 37° C. The wells are washed several times with 155 mM NaCl pH 7.2 buffer saline and are soaked for several seconds between each wash.
(§4) Non-radioactive detection is performed by adding:
(§5) 10 μL Biotinylated goat F(ab′)2 Anti-mouse IgG. (8.0×10-4 mg/mL, FAC), 5 μL Alk-phos-Streptavidin (3×10-3 mg/mL FAC), 0.42 μL per 5 mL Monoclonal antibody for sRAGE (FAC 6.0×10-3 mg/mL) to 5 mL 50 mM imidazole buffer saline (pH 7.2) containing 0.2% bovine serum albumin and 5 mM CaCl2. The mixture is incubated for 30 minutes at RT.
(§6) 100 μL of complex is added to each well and incubation is allowed to proceed at rt for 1 h. Wells are washed several times with wash buffer and soaked several seconds between each wash. 100 μL 1 mg/mL (pNPP) in 1 M diethanolamine (pH adjusted to 9.8 with HCl) is added. Color is allowed to develop in the dark for 30 min to 1 h at rt. The reaction is quenched with 10 μL of stop solution (0.5-1.0 N NaOH in 50% ethanol) and the absorbance is measured spectrophotometrically with a microplate reader at 405 nm.
(§7) The IC50 (μM) value in the ELISA assay represents the concentration of compound at which 50% signal has been inhibited.

sRAGE binding to S100b = target: T2, sRAGE binding to S100b (Homo sapiens, UniProt Q15109); experiment: RAGE binding assay (ELISA), S100b as the RAGE ligand; conditions: compounds tested in hydrochloride salt form, concentration at which 50% signal has been inhibited
T2 construct: extracellular domain can be isolated by proteolysis of RAGE to generate soluble RAGE (sRAGE) comprised of the V and C domains
T2 sequence (Q15109 23-342 limits assumed): as above
Description: as §1, §2, §3, §4, §5, §6, §7

Compound	IC50 [1] [nM]	IC50 (sRAGE binding to S100b) [nM]
CCCCc1nnc(C(=O)N[C@@H]2CN3CCC2CC3)cc1-c1ccc(OCc2ccccc2)cc1 [Example 82, 5-(4-Benzyloxy-phenyl)-6-butyl-pyridazine-3-carboxylic acid (S)-(1-aza-bicyclo[2.2.2]oct-3-yl)-amide dihydrochloride]	1290	1270
CCCCc1nnc(C(=O)NC[C@H](O)CN(C)C)cc1-c1ccc(OC2CCCCC2)cc1 [Example 87, 6-Butyl-5-(4-cyclohexyloxy-phenyl)-pyridazine-3-carboxylic acid ((S)-3-dimethylamino-2-hydroxy-propyl)-amide dihydrochloride]	2430	1970
CCCCc1nnc(OCC2(O)CCN(C)CC2)cc1-c1ccc(OCc2ccccc2)cc1 [Example 11, 4-[5-(4-Benzyloxy-phenyl)-6-butyl-pyridazin-3-yloxymethyl]-1-methyl-piperidin-4-ol dihydrochloride]	3230	5740
CCCCc1nnc(OCCCN2CCCCC2)cc1-c1ccc(OCc2ccccc2)cc1 [Example 5, 4-(4-Benzyloxy-phenyl)-3-butyl-6-(3-piperidin-1-yl-propoxy)-pyridazine dihydrochloride]	6280	3110
CCCCc1nnc(OCC2CCN(C)CC2)cc1-c1ccc(OCc2ccccc2)cc1 [Example 2, 4-(4-Benzyloxy-phenyl)-3-butyl-6-(1-methyl-piperidin-4-ylmethoxy)-pyridazine]	1230	1320
CCCCc1nnc(OC2CCN(C)CC2)cc1-c1ccc(OC2CCCCC2)c(C#N)c1 [Example 67, 5-[3-Butyl-6-(1-methyl-piperidin-4-yloxy)-pyridazin-4-yl]-2-cyclohexyloxy-benzonitrile dihydrochloride]	3200	1700
CCCCc1nnc(OC2CCN(CCC(=O)N(C)C)CC2)cc1-c1ccc(OC2CCCCC2)cc1 [Example 16, 3-{4-[6-Butyl-5-(4-cyclohexyloxy-phenyl)-pyridazin-3-yloxy]-piperidin-1-yl}-N,N-dimethyl-propionamide dihydrochloride]	2070	2170
CCCCc1nnc(C(=O)NC[C@@H]2CCN(C)C[C@@H]2OC)cc1-c1ccc(OC2CCCCC2)cc1 (racemic) [Example 104, (±)-cis-6-Butyl-5-(4-cyclohexyloxy-phenyl)-pyridazine-3-carboxylic acid (3-methoxy-1-methyl-piperidin-4-ylmethyl)-amide dihydrochloride]	1610	1120
CCCCc1nnc(OC2CCN(CCc3nnc(C)o3)CC2)cc1-c1ccc(OC2CCCCC2)cc1 [Example 20, 3-Butyl-4-(4-cyclohexyloxy-phenyl)-6-{1-[2-(5-methyl-[1,3,4]oxadiazol-2-yl)-ethyl]-piperidin-4-yloxy}-pyridazine dihydrochloride]	2230	1460
CCCCc1nnc(C(=O)NCCN2CCC(O)CC2)cc1-c1ccc(OC2CCCCC2)cc1 [Example 93, 6-Butyl-5-(4-cyclohexyloxy-phenyl)-pyridazine-3-carboxylic acid [2-(4-hydroxy-piperidin-1-yl)-ethyl]-amide dihydrochloride]	2510	1690
CCCCc1nnc(OC2CCN(CCC3OCCCO3)CC2)cc1-c1ccc(OC2CCCCC2)cc1 [Example 18, 3-Butyl-4-(4-cyclohexyloxy-phenyl)-6-[1-(2-[1,3]dioxan-2-yl-ethyl)-piperidin-4-yloxy]-pyridazine dihydrochloride]	600	830
CCCCc1nnc(OCCN(CC)CC)cc1-c1ccc(OCc2ccccc2)cc1 [Example 3, {2-[5-(4-Benzyloxy-phenyl)-6-butyl-pyridazin-3-yloxy]-ethyl}-diethyl-amine dihydrochloride]	2280	2490
CCCCc1nnc(O[C@@H]2CCN(C)C2)cc1-c1ccc(OC2CCCCC2)cc1 [Example 29, 3-Butyl-4-(4-cyclohexyloxy-phenyl)-6-((R)-1-methyl-pyrrolidin-3-yloxy)-pyridazine dihydrochloride]	2360	1720
CCCCc1nnc(OCC2CCN(C)C2)cc1-c1ccc(OCc2ccccc2)cc1 (stereo not shown) [Example 10, 4-(4-Benzyloxy-phenyl)-3-butyl-6-(1-methyl-pyrrolidin-3-ylmethoxy)-pyridazine dihydrochloride]	1630	1520
CCCCc1nnc(OC[C@H]2CN(C)CC[C@H]2O)cc1-c1ccc(OC2CCCCC2)cc1 (racemic) [Example 43, (±)-cis-3-[6-Butyl-5-(4-cyclohexyloxy-phenyl)-pyridazin-3-yloxymethyl]-1-methyl-piperidin-4-ol dihydrochloride]	830	2070
CCCCc1nnc(OCC[C@H]2CCCCN2C)cc1-c1ccc(OC2CCCCC2)cc1 [Example 32, 3-Butyl-4-(4-cyclohexyloxy-phenyl)-6-[2-((R)-1-methyl-piperidin-2-yl)-ethoxy]-pyridazine dihydrochloride]	1780	2780
CCCCc1nnc(OCC2(F)CCN(C)CC2)cc1-c1ccc(OC2CCCCC2)cc1 [Example 45, 3-Butyl-4-(4-cyclohexyloxy-phenyl)-6-(4-fluoro-1-methyl-piperidin-4-ylmethoxy)-pyridazine dihydrochloride]	500	1150
CCCCc1nnc(C(=O)N2CCC(O)C(CN(C)C)C2)cc1-c1ccc(OC2CCCCC2)cc1 (stereo not shown) [Example 106, [6-Butyl-5-(4-cyclohexyloxy-phenyl)-pyridazin-3-yl]-(3-dimethylaminomethyl-4-hydroxyoxy-piperidin-1-yl)-methanone dihydrochloride]	1750	2180
CCCCc1nnc(OC2CCN(C)CC2)cc1-c1ccc(OC2CCCCC2)c(NC(C)=O)c1 [Example 62, N-{5-[3-butyl-6-(1-methyl-piperidin-4-yloxy)-pyridazin-4-yl]-2-cyclohexyloxy-phenyl}-acetamide dihydrochloride]	5000	3630
CCCCc1nnc(C(=O)NC[C@@H]2CCCN2CC)cc1-c1ccc(OC2CCCCC2)cc1 [Example 92, 6-Butyl-5-(4-cyclohexyloxy-phenyl)-pyridazine-3-carboxylic acid ((S)-1-ethyl-pyrrolidin-2-ylmethyl)-amide dihydrochloride]	1020	1750
CCCCc1nnc(OC2CCN(C)CC2)cc1-c1ccc(OC2CCCCC2)c(OC)c1 [Example 73, 3-Butyl-4-(4-cyclohexyloxy-3-methoxy-phenyl)-6-(1-methyl-piperidin-4-yloxy)-pyridazine dihydrochloride]	1040	1740
CCCCc1nnc(OC2CCN(C)CC2)cc1-c1ccc(OC2CCCCC2)c(-c2nnn(C)n2)c1 [Example 79, 3-Butyl-4-[4-cyclohexyloxy-3-(2-methyl-2H-tetrazol-5-yl)-phenyl]-6-(1-methyl-piperidin-4-yloxy)-pyridazine dihydrochloride]	1490	1470
CCCCc1nnc(OC2CCN(C)CC2)cc1-c1ccc(OC2CCCCC2)c(O)c1 [Example 74, 5-[3-Butyl-6-(1-methyl-piperidin-4-yloxy)-pyridazin-4-yl]-2-cyclohexyloxy-phenol dihydrochloride]	1160	1640
CCCCc1nnc(OC2CCN(C)CC2)cc1-c1ccc(OC2CCCCC2)c(-c2cnn(C)c2)c1 [Example 69, 3-Butyl-4-[4-cyclohexyloxy-3-(1-methyl-1H-pyrazol-4-yl)-phenyl]-6-(1-methyl-piperidin-4-yloxy)-pyridazine dihydrochloride]	790	730
CCCCc1nnc(OC2CCN(CCC(=O)OCC)CC2)cc1-c1ccc(OC2CCCCC2)cc1 [Example 15, 3-{4-[6-Butyl-5-(4-cyclohexyloxy-phenyl)-pyridazin-3-yloxy]-piperidin-1-yl}-propionic acid ethyl ester dihydrochloride]	660	640
CCCCc1nnc(C(=O)N2CCC(CN(C)C)C(F)(F)C2)cc1-c1ccc(OC2CCCCC2)cc1 (stereo not shown) [Example 105, [6-Butyl-5-(4-cyclohexyloxy-phenyl)-pyridazin-3-yl]-(4-dimethylaminomethyl-3,3-difluoro-piperidin-1-yl)-methanone dihydrochloride]	2120	1390
